Marks after values point to notes of the source that are not given here. Starred links: 1 amine or outer side, 2 acyl side, 3 side chain; linkers in the order of their positions; H or OH if unused. Non-standard residues stand in square brackets, D forms with d. Residues, ends and D or L forms follow the SMILES beside them. Groups on a side chain read outwards from the residue. *: point of attachment. C20 diacid = O=C(O)CCCCCCCCCCCCCCCCCCC(=O)*; γGlu = O=C(O)[C@H](CCC(=O)[*:2])N[*:1]; NMeI = CC[C@H](C)[C@H](NC)C(=O)O; AEEA = NCCOCCOCC(=O)O; Aib = CC(C)(N)C(=O)O
Assays:
PK in mice = type: in vivo; set-up: T½ / MRT: unit: h; conditions: for half-life: read-out: T½ (converted)
Procedure, shortened: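 Male NMRI/RjHan lean mice, about 8 weeks old after acclimatization, got one peptide IV and another SC at 15 or 50 nmol/kg. Sparse plasma sampling (3 mice per timepoint) ran from 0.17 to 96 h post-dose. LC-MS/MS quantified plasma levels, with parameters from non-compartmental analysis.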

PK in rats = type: in vivo; set-up: T½ / MRT: unit not given here; conditions: for half-life: read-out: T½ (converted)
Procedure, shortened: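 Lean male Sprague Dawley rats (n = 3 per group) got a two-peptide combination at 50 nmol/kg IV and SC. Plasma was sampled from 0.17 to 96 h post dose and analysed by LC-MSMS. PK parameters came from non-compartmental analysis.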

[1] = Effect on acute food intake in mice; type: in vivo; conditions: single subcutaneous dose
Procedure, shortened: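 Male NMRI mice (n=7-8 per group) were fasted from six hours before the dark phase. They received a single subcutaneous peptide dose one hour before dark onset. Hourly food intake was monitored for 72 h and expressed as percent reduction versus vehicle, analysed by one-way ANOVA with Dunnett's test.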

[2] = Chemical stability of purified peptides (RP-UHPLC main peak purity loss); type: physicochemical; conditions: for Purity loss (RP-UPLC analysis) T28-T0 (%): 28 days
Procedure, shortened: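 Peptides at about 1.0 mg/ml in 50 mM phosphate buffer pH 7.5, or pH-adjusted for the pH series, were incubated at 40 °C for 14 and 28 days. Main-peak purity was taken as main-peak area over total area by RP-UHPLC (UV 215 nm, C8, 50 °C). Purity loss was calculated versus T0.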

pCRHR1 = assay: cAMP potency, transiently transfected CHO-K1 cells, pCRHR1; type: cell-based, pig; conditions: transiently transfected CHO-K1, average n=3; read-out: Transient cell system EC50 (nM) pCRHR 1
Description: Selected peptides were tested for potency on different species (mouse, rat, porcine) using transiently transfected CHO-K1 cells using the general procedure.

[3] = male, NMRI/RjHan, in vivo, iv, Mouse, 15 nmol/kg i.v.
[4] = male, NMRI/RjHan, in vivo, sc, Mouse, 15 nmol/kg s.c.
[5] = male, Sprague Dawley (RJHan:SD), in vivo, iv, Rat, 50 nmol/kg i.v.
[6] = male, Sprague Dawley (RJHan:SD), in vivo, sc, Rat, 50 nmol/kg s.c.

SMILES: CC[C@H](C)[C@H](NC)C(=O)N[C@H](C(=O)N[C@@H](CC(C)C)C(=O)N[C@@H](CO)C(=O)N[C@@H](CC(C)C)C(=O)N[C@@H](CC(=O)O)C(=O)N[C@H](C(=O)N1CCC[C@H]1C(=O)N[C@H](C(=O)NCC(=O)N[C@@H](CC(C)C)C(=O)N[C@@H](CC(C)C)C(=O)N[C@@H](CCC(N)=O)C(=O)N[C@H](C(=O)N[C@@H](CC(C)C)C(=O)N[C@@H](CC(C)C)C(=O)N[C@@H](CCC(=O)O)C(=O)N[C@@H](CCC(N)=O)C(=O)N[C@@H](C)C(=O)N[C@@H](CCCNC(=N)N)C(=O)N[C@@H](C)C(=O)N[C@@H](CCCNC(=N)N)C(=O)N[C@@H](C)C(=O)N[C@@H](C)C(=O)N[C@@H](CCCNC(=N)N)C(=O)N[C@@H](CCC(=O)O)C(=O)N[C@@H](CCC(N)=O)C(=O)N[C@@H](C)C(=O)N[C@@H](CCCCNC(=O)COCCOCCNC(=O)COCCOCCNC(=O)CC[C@H](NC(=O)CC[C@H](NC(=O)CCCCCCCCCCCCCCCCCCC(=O)O)C(=O)O)C(=O)O)C(=O)N[C@H](C(=O)N[C@@H](CC(N)=O)C(=O)NC(C)(C)C(=O)N[C@@H](CCC(=O)O)C(=O)N[C@H](C(=O)N[C@@H](CC(C)C)C(=O)N[C@@H](C)C(=O)N[C@@H](CCC(=O)O)C(=O)N[C@H](C(N)=O)C(C)C)[C@@H](C)CC)[C@@H](C)O)[C@@H](C)CC)[C@@H](C)CC)C(C)C)C(C)C [SEQ ID NO: 16] (H-[NMeI]VLSLDVPIGLLQILLEQARARAAREQAK([AEEA-AEEA-γGlu-γGlu-C20 diacid])TN[Aib]EILAEV-NH2)
- MRT (PK in mice; Mouse): 21.5
- T½ (PK in mice; Mouse): 15.9
- bioavailability (PK in mice; male, NMRI, mouse, in vivo, sc): 62%
- clearance (PK in mice; [3]): 3.7 mL/h/kg
- half-life (PK in mice; [3]): 15.9 h
- Cmax (PK in mice; [4]): 60 nM
- Tmax (PK in mice; [4]): 6 h
- half-life (PK in mice; [4]): 14.8 h
- MRT (PK in rats; Rat): 9.4
- T½ (PK in rats; Rat): 7.8
- clearance (PK in rats; [5]): 7 mL/h/kg
- half-life (PK in rats; [5]): 7.8 h
- Cmax (PK in rats; [6]): 87 nM
- Tmax (PK in rats; [6]): 24 h
- half-life (PK in rats; [6]): 9.8 h
- bioavailability (PK in rats; male, Sprague Dawley, rat, in vivo, sc): 31%
- % FI compared to vehicle, 24 h post-dosing ([1]; 30 nmol/kg): 44.62*** %
- % FI compared to vehicle, 24 h post-dosing ([1]; 100 nmol/kg): 18.21*** %
- % FI compared to vehicle, 24 h post-dosing ([1]; 300 nmol/kg): 12.36*** %
- Purity loss (RP-UPLC analysis) T14-T0 (%) ([2]; pH 7.0, 40°C, 14 days): -0.6%
- Purity loss (RP-UPLC analysis) T28-T0 (%) ([2]; pH 7.0, 40°C): -1.1%
- Purity loss (RP-UPLC analysis) T14-T0 (%) ([2]; pH 7.5, 40°C, 14 days): -0.1%
- Chemical stability at pH 7.5 after 14 days at 40°C (% degradation) ([2]; pH 7.5, 40°C, 14 days, first value of cell): -0.6 / %
- Purity loss (RP-UPLC analysis) T28-T0 (%) ([2]; pH 7.5, 40°C): -0.3%
- Purity loss (RP-UPLC analysis) T14-T0 (%) ([2]; pH 8.0, 40°C, 14 days): -0.5%
- Purity loss (RP-UPLC analysis) T28-T0 (%) ([2]; pH 8.0, 40°C): -1.1%
- EC50 (pCRHR1): > 5000 nM
- Solubility pH 6.5 (mg/ml) (pH 6.5): 20.6 mg/ml
- Solubility pH 7.0 (mg/mL) (pH 7): 19.8 mg/mL
- Solubility pH 7.5 (mg/mL) (pH 7.5): 17.9 mg/mL
- Solubility pH 7.5 + phenol (mg/mL) (pH 7.5): 18.0 mg/mL
- Solubility pH 7.5, target conc. =10 mg/mL (measured mg/mL) (pH 7.5): 10 mg/mL

Source: patent publication EP4810052A2, “HCRHR2 SELECTIVE POLYPEPTIDES” (Gubra A/S, priority 2023, dated 2026)
